{"source": "patent EP4782434A1", "about": "“N-SULFONYL CARBOXAMIDE COMPOUND, AND PREPARATION METHOD THEREFOR AND USE THEREOF” (Nutshell Therapeutics (Shanghai) Co., Ltd., priority 2023, dated 2025)", "key": {"[1]": {"target": "T1, Polθ ATPase (Homo sapiens, UniProt O75417)", "T1 construct": "purified truncated POLQ-N protein (aa 1-894, N-terminal 6-His tag); 6-His (N)", "T1 sequence (O75417 1-894)": "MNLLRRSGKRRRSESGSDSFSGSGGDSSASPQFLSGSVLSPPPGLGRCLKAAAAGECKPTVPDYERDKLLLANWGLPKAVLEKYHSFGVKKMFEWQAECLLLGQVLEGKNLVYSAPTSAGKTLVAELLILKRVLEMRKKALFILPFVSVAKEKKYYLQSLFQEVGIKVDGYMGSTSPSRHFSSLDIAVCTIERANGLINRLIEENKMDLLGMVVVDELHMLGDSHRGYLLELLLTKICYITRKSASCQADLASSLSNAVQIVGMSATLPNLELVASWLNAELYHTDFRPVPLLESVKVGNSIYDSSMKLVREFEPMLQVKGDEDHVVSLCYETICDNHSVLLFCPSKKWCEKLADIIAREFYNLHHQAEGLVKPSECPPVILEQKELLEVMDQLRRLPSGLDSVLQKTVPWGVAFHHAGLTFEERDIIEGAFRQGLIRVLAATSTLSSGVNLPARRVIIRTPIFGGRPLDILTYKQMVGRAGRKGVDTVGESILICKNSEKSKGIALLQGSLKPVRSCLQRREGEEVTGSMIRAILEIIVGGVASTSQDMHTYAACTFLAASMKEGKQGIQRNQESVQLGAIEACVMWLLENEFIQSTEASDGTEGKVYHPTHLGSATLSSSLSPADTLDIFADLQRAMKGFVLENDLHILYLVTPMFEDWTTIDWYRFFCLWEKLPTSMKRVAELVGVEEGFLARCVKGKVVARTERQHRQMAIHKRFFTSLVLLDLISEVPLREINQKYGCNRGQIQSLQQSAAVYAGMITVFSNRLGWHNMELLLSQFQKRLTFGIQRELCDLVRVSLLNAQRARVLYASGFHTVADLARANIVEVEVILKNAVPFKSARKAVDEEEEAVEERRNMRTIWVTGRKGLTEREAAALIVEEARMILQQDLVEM", "assay": "Polθ ATPase activity assay (ADP-Glo Kinase Assay kit)", "type": "biochemical", "conditions": "truncated POLQ-N protein (aa 1-894) 1 nM, 50 nM ssDNA, 50 µM ATP", "description": "The inhibitory efficiency of the compounds of formula (I) against Polθ ATPase activity was determined using the ADP-Glo Kinase Assay kit (Promega, V9101). […] The starting (final) concentration was 100 nM, followed by a 3-fold serial dilution for a total of 10 concentration points in duplicate (n=2). 5 μL of purified […], N-terminal 6-His tag) was added to each well. After centrifugation at 1000 rpm for 1 minute, the plate was incubated at 25°C for 10 minutes. 5 μL of substrate reaction solution (containing ATP & ssDNA) was added to each well, and the reaction was carried out at 25°C for 60 minutes. 5 μL of ADP-Glo Reagent was added to each well. After centrifugation at 1000 rpm for 1 minute, the plate was incubated at 25°C for 40 minutes. 10 μL of detection solution was added to each well. After centrifugation at 1000 rpm for 1 minute, the plate was incubated at 25°C for 40 minutes. Luminescence signals were recorded using a microplate reader (BMG, PHERAstar FSX). The final reaction system contained 1 nM of POLQ-N enzyme; 50 nM of ssDNA ([NT]); 50 μM of ATP; and 1% DMSO. The inhibition percentage (%) of the compound at each concentration was calculated using the RFU values normalized against the control wells within each assay plate. Table 1: Inhibitory activity of compounds against Polθ ATPase"}, "[2]": {"test_system": "Theta-mediated end joining (TMEJ) process in HEK293T cells", "assay": "TMEJ reporter assay (NanoGlo luciferase)", "type": "cell-based", "conditions": "Homo sapiens, HEK-293T, HEK293T cells electroporated with TMEJ substrate, 24 hours", "description": "The inhibitory effect of the compounds on the Theta-mediated end joining (TMEJ) process was evaluated.\n(1) HEK293T cells were cultured in DMEM supplemented with 10% heat-inactivated fetal bovine serum (FBS) and 1% penicillin-streptomycin (PS). (2) Prior to startup, the Neon transfection system was disinfected, and E2 and R buffers were equilibrated to room temperature. (3) Culture medium without antibiotics was pre-warmed. (4) Cells in the flask reaching 80-90% confluency were trypsinized, neutralized with culture medium, centrifuged, and counted. (5) For transfection using a 100 µL electroporation tip, 2 × 10^6 cells were taken, washed once with DPBS (without Mg^2+ and Ca^2+), centrifuged at 1000 rpm for 5 min, and the supernatant was discarded. The number of cells and volume may be increased as required. (6) The Neon system was set up; a Neon tube was inserted into the Neon pipette and E2 buffer was added. (7) 10 µg of TMEJ substrate was added to 100 µL of R solution; the volume may be increased as required. (8) Cells were resuspended in DNA buffer, and electroporation was initiated according to the following parameters:\n(9) The cells were loaded into antibiotic-free culture medium and mixed gently. (10) Steps (8)-(9) were repeated as necessary, and cells were seeded into 384-well plates at a density of 40,000 cells/well in 40 µL of culture medium. (11) The plates were incubated in a humidified CO2 incubator at 37°C for 24 hours. (12) NanoGlo reagent was warmed to room temperature, and NanoGlo buffer was mixed with the substrate at a ratio of 50:1. (13) The cell culture plates were equilibrated at room temperature for 10 minutes. (14) 40 µL of NanoGlo substrate buffer was added to each well, followed by shaking at 300 rpm for 3 minutes protected from light. (15) Signals were read via a BMG PHERAstar FSX."}}, "data": [{"molecule": "[2H]C([2H])([2H])O[C@@H](C)c1ccc(CS(=O)(=O)NC(=O)c2ccc(C([2H])([2H])[2H])cc2-c2cc(C(F)F)ncc2OC)cc1", "note": "[cpd-16, (S)-2-(2-(Difluoromethyl)-5-methoxypyridin-4-yl)-N-((4-(1-(methoxy-d3)ethyl)benzyl)sulfonyl)-4-(methyl-d3)benzamide]", "values": [{"measurement": "IC50", "setting": "[1]; class symbols", "result": "≤ 2", "unit": "nM"}, {"measurement": "IC50", "setting": "[1]; specific values", "result": 0.39, "unit": "nM"}, {"measurement": "IC50", "setting": "[2]", "result": 2, "unit": "nM"}]}, {"molecule": "COc1cnc(Cl)cc1-c1cc(C)ncc1C(=O)Nc1nnc(OC[C@H]2COCCO2)s1", "note": "[Ref. 1, reference compound]", "values": [{"measurement": "IC50", "setting": "[1]; class symbols", "result": "2 to 10", "unit": "nM"}, {"measurement": "IC50", "setting": "[1]; specific values", "result": 2.2, "unit": "nM"}, {"measurement": "IC50", "setting": "[2]", "result": 5, "unit": "nM"}]}, {"molecule": "[2H]C([2H])([2H])O[C@@H](C)c1ccc(CS(=O)(=O)NC(=O)c2ccc(C([2H])([2H])[2H])cc2-c2cc(Cl)ncc2OC)cc1", "note": "[cpd-17, (S)-2-(2-Chloro-5-methoxypyridin-4-yl)-N-((4-(1-(methoxy-d3)ethyl)benzyl)sulfonyl)-4-(methyl-d3)benzamide]", "values": [{"measurement": "IC50", "setting": "[1]; class symbols", "result": "≤ 2", "unit": "nM"}, {"measurement": "IC50", "setting": "[1]; specific values", "result": 1.4, "unit": "nM"}, {"measurement": "IC50", "setting": "[2]", "result": 1.8, "unit": "nM"}]}]}
